From PubChem BioAssay AID504381 (The Scripps Research Institute Molecular Screening Center, 2011)
The source made the active and inactive calls. No rule for the calls is given here.

Assays:
Experiment in all cases: radioligand displacement at receptors and transporters – biochemical, PDSP panel, Set 2, late-stage follow-up (AID 504381)
[1] = molecular target: Delta-type opioid receptor (Homo sapiens) (UniProt P41143); conditions: PDSP radioligand binding panel, Opioid receptor DOR, at 10 µM, hits give high values
Chain of Delta-type opioid receptor (Homo sapiens) (P41143 whole entry, looked up): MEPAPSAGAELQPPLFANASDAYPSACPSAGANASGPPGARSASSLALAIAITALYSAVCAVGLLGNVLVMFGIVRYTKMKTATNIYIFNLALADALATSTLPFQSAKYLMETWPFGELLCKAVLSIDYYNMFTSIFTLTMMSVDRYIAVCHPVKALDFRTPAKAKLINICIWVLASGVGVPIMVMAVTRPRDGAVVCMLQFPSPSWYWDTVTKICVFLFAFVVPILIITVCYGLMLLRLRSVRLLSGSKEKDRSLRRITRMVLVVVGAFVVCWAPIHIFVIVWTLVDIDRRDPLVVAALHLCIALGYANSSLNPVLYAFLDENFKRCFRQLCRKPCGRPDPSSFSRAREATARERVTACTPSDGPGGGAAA

Serotonin receptor 5ht1b = conditions: PDSP radioligand binding panel, at 10 µM, hits give high values
Muscarinic receptor M4 = conditions: PDSP radioligand binding panel, at 10 µM, hits give high values
[2] = test system: Adrenergic receptor Alpha1D; conditions: PDSP radioligand binding panel, at 10 µM, hits give high values
[3] = test system: Biogenic amine transporter DAT; conditions: PDSP radioligand binding panel, at 10 µM, hits give high values
Histamine receptor H2 = conditions: PDSP radioligand binding panel, at 10 µM, hits give high values
Serotonin receptor 5ht6 = conditions: PDSP radioligand binding panel, at 10 µM, hits give high values
Serotonin receptor 5ht7 = conditions: PDSP radioligand binding panel, at 10 µM, hits give high values
[4] = molecular target: D(1A) dopamine receptor (Homo sapiens) (UniProt P21728); conditions: PDSP radioligand binding panel, Dopamine receptor D1, at 10 µM, hits give high values
Chain of D(1A) dopamine receptor (Homo sapiens) (P21728 whole entry, looked up): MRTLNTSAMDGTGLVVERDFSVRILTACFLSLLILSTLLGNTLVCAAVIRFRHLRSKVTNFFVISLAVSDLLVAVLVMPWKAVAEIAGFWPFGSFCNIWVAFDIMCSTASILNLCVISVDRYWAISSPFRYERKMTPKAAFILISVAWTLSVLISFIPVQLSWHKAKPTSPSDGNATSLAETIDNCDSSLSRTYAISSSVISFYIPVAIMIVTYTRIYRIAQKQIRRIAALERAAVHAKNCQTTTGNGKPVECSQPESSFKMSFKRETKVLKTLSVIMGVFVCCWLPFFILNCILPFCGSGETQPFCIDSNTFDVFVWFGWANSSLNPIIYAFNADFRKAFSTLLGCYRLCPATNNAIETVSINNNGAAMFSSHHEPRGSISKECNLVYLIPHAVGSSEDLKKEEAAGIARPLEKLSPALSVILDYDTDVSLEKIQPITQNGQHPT

[5] = test system: Biogenic amine transporter NET; conditions: PDSP radioligand binding panel, at 10 µM, hits give high values
[6] = molecular target: Kappa-type opioid receptor (Homo sapiens) (UniProt P41145); conditions: PDSP radioligand binding panel, Opioid receptor KOR, at 10 µM, hits give high values
Chain of Kappa-type opioid receptor (Homo sapiens) (P41145 whole entry, looked up): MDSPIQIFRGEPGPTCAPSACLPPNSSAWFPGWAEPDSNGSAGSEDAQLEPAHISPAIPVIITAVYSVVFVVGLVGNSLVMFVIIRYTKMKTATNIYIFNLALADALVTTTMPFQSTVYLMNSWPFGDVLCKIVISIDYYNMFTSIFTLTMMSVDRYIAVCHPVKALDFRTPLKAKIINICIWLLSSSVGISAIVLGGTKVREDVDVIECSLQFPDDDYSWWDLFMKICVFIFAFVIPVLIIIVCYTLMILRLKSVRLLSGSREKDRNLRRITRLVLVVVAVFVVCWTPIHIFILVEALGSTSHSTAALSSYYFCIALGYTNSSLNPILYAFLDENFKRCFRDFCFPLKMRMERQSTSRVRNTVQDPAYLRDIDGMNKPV

Serotonin receptor 5ht1a = conditions: PDSP radioligand binding panel, at 10 µM, hits give high values
Dopamine receptor D2 = conditions: PDSP radioligand binding panel, at 10 µM, hits give high values
[7] = test system: Adrenergic receptor Beta3; conditions: PDSP radioligand binding panel, at 10 µM, hits give high values
Serotonin receptor 5ht2c = conditions: PDSP radioligand binding panel, at 10 µM, hits give high values
[8] = molecular target: Beta-2 adrenergic receptor (Homo sapiens) (UniProt P07550); conditions: PDSP radioligand binding panel, Adrenergic receptor Beta2, at 10 µM, hits give high values
Chain of Beta-2 adrenergic receptor (Homo sapiens) (P07550 whole entry, looked up): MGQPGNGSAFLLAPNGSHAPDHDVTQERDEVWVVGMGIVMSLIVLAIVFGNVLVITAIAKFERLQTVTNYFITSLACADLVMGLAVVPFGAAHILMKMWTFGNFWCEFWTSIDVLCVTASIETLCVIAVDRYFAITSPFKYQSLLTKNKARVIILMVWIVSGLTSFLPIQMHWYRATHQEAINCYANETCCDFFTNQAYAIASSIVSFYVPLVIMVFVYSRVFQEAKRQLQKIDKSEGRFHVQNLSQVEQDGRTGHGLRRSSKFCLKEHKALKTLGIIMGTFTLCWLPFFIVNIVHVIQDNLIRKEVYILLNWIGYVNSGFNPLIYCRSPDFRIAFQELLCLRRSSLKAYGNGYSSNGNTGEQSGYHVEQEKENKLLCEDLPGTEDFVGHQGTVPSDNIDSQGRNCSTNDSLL

[9] = test system: Adrenergic receptor Alpha1B; conditions: PDSP radioligand binding panel, at 10 µM, hits give high values
[10] = molecular target: Muscarinic acetylcholine receptor M3 (Homo sapiens) (UniProt P20309); conditions: PDSP radioligand binding panel, at 10 µM, hits give high values
Chain of Muscarinic acetylcholine receptor M3 (Homo sapiens) (P20309 whole entry, looked up): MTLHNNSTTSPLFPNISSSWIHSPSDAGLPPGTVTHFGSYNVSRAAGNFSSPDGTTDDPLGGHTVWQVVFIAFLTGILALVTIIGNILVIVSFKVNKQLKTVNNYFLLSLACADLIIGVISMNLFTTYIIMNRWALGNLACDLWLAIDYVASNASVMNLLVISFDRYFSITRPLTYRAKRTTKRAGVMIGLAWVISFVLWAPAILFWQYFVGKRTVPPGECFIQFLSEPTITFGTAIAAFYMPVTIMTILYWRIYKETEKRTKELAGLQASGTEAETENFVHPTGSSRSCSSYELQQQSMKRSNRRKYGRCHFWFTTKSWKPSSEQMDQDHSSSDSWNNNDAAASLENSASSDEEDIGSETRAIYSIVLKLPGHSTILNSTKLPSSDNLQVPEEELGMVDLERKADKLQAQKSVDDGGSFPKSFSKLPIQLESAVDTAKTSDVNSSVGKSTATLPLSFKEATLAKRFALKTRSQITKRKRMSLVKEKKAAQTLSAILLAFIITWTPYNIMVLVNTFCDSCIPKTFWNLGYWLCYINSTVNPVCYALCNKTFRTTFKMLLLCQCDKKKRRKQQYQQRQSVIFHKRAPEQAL

Serotonin receptor 5ht2a = conditions: PDSP radioligand binding panel, at 10 µM, hits give high values
Serotonin receptor 5ht5a = conditions: PDSP radioligand binding panel, at 10 µM, hits give high values
GABA receptor GABAa = conditions: PDSP radioligand binding panel, at 10 µM, hits give high values
Opioid receptor MOR = conditions: PDSP radioligand binding panel, at 10 µM, hits give high values
Histamine receptor H1 = conditions: PDSP radioligand binding panel, at 10 µM, hits give high values
Serotonin receptor 5ht1d = conditions: PDSP radioligand binding panel, at 10 µM, hits give high values
Muscarinic receptor M5 = conditions: PDSP radioligand binding panel, at 10 µM, hits give high values
Dopamine receptor D4 = conditions: PDSP radioligand binding panel, at 10 µM, hits give high values
Histamine receptor H4 = conditions: PDSP radioligand binding panel, at 10 µM, hits give high values
Serotonin receptor 5ht3 = conditions: PDSP radioligand binding panel, at 10 µM, hits give high values
Serotonin receptor 5ht1e = conditions: PDSP radioligand binding panel, at 10 µM, hits give high values
[11] = molecular target: 5-hydroxytryptamine receptor 2B (Homo sapiens) (UniProt P41595); conditions: PDSP radioligand binding panel, Serotonin receptor 5ht2b, at 10 µM, hits give high values
Chain of 5-hydroxytryptamine receptor 2B (Homo sapiens) (P41595 whole entry, looked up): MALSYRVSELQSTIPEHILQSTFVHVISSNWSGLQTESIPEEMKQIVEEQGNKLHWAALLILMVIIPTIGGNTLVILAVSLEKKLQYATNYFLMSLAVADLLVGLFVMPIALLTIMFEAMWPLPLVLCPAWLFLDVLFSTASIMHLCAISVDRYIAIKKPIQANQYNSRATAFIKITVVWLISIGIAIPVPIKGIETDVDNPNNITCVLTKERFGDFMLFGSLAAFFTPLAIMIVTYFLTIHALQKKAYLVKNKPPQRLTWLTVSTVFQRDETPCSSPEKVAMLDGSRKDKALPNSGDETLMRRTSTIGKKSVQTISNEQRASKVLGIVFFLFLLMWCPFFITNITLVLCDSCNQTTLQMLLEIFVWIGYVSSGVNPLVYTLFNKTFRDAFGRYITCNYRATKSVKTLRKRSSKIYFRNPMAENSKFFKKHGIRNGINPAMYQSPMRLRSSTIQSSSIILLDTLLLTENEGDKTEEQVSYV

[12] = test system: Adrenergic receptor Beta1; conditions: PDSP radioligand binding panel, at 10 µM, hits give high values
[13] = test system: Biogenic amine transporter SERT; conditions: PDSP radioligand binding panel, at 10 µM, hits give high values
Histamine receptor H3 = conditions: PDSP radioligand binding panel, at 10 µM, hits give high values
Sigma receptor 1 = conditions: PDSP radioligand binding panel, at 10 µM, hits give high values
[14] = molecular target: Muscarinic acetylcholine receptor M1 (Homo sapiens) (UniProt P11229); conditions: PDSP radioligand binding panel, at 10 µM, hits give high values
Chain of Muscarinic acetylcholine receptor M1 (Homo sapiens) (P11229 whole entry, looked up): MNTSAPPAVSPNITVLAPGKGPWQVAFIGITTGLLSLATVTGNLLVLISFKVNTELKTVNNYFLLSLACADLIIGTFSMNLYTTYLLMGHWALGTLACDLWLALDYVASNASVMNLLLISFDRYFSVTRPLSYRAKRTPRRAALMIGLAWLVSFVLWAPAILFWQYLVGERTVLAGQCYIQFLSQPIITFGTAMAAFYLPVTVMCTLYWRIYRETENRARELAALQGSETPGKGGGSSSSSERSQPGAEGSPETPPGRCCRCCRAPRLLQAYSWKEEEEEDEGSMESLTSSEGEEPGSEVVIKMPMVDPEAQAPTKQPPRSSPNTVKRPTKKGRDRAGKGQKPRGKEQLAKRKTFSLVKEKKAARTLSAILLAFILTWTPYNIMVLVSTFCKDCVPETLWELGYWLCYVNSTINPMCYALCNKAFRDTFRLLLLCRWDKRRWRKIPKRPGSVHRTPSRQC

[15] = molecular target: Muscarinic acetylcholine receptor M2 (Homo sapiens) (UniProt P08172); conditions: PDSP radioligand binding panel, at 10 µM, hits give high values
Chain of Muscarinic acetylcholine receptor M2 (Homo sapiens) (P08172 whole entry, looked up): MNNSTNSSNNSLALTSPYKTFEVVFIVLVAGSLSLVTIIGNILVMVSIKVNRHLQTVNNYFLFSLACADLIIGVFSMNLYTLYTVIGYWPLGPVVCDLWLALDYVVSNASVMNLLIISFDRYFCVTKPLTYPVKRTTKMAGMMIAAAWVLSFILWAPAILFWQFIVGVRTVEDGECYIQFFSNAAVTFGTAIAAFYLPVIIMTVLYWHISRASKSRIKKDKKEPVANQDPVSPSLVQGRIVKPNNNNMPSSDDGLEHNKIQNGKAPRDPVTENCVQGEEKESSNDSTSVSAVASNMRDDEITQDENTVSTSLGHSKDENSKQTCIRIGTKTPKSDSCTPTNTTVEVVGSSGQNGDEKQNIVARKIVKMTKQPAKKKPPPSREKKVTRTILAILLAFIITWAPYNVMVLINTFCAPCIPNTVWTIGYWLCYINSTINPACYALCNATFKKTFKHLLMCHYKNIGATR

[16] = test system: Adrenergic receptor Alpha1A; conditions: PDSP radioligand binding panel, at 10 µM, hits give high values
[17] = molecular target: D(3) dopamine receptor (Homo sapiens) (UniProt P35462); conditions: PDSP radioligand binding panel, Dopamine receptor D3, at 10 µM, hits give high values
Chain of D(3) dopamine receptor (Homo sapiens) (P35462 whole entry, looked up): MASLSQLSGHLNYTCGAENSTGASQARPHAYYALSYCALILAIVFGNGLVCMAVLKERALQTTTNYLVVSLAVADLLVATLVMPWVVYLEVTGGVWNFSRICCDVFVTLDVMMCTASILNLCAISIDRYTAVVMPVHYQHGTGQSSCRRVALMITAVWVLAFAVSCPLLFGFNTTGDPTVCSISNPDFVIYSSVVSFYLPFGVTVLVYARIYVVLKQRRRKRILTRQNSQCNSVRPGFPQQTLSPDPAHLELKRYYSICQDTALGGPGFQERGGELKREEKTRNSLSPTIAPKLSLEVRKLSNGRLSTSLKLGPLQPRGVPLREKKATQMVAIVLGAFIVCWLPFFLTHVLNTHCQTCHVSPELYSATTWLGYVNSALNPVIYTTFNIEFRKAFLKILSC

[18] = molecular target: D(1B) dopamine receptor (Homo sapiens) (UniProt P21918); conditions: PDSP radioligand binding panel, Dopamine receptor D5, at 10 µM, hits give high values
Chain of D(1B) dopamine receptor (Homo sapiens) (P21918 whole entry, looked up): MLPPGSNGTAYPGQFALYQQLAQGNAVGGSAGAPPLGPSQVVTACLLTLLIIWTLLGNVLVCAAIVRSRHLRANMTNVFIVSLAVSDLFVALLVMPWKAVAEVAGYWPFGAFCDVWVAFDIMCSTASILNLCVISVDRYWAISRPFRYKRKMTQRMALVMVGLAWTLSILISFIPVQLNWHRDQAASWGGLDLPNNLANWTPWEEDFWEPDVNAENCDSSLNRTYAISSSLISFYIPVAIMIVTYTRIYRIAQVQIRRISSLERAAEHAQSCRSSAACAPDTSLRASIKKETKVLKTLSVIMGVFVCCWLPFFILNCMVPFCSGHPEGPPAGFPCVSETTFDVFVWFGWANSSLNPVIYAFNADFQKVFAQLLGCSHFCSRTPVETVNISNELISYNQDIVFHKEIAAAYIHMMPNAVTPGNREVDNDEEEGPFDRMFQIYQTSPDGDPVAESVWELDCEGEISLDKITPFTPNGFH

inhibition [1]: 0.8% (inactive) | inhibition (Serotonin receptor 5ht1b): 5.8% (inactive) | inhibition (Muscarinic receptor M4): -9.4% (inactive) | inhibition [2]: 17.9% (inactive) | inhibition [3]: 29.1% (inactive) | inhibition (Histamine receptor H2): 9.9% (inactive) | inhibition (Serotonin receptor 5ht6): 3.5% (inactive) | inhibition (Serotonin receptor 5ht7): -19% (inactive) | inhibition [4]: 13.9% (inactive) | inhibition [5]: 74.1% (inactive) | inhibition [6]: 102% | inhibition (Serotonin receptor 5ht1a): 21.4% (inactive) | inhibition (Dopamine receptor D2): -1.5% (inactive) | inhibition [7]: -13.9% (inactive) | inhibition (Serotonin receptor 5ht2c): 31.5% (inactive) | inhibition [8]: 11.4% (inactive) | inhibition [9]: 9% (inactive) | inhibition [10]: -0.4% (inactive) | inhibition (Serotonin receptor 5ht2a): 0.5% (inactive) | inhibition (Serotonin receptor 5ht5a): -7.7% (inactive) | inhibition (GABA receptor GABAa): 28.7% (inactive) | inhibition (Opioid receptor MOR): 16.6% (inactive) | inhibition (Histamine receptor H1): 35.7% (inactive) | inhibition (Serotonin receptor 5ht1d): 15.3% (inactive) | inhibition (Muscarinic receptor M5): 10.5% (inactive) | inhibition (Dopamine receptor D4): 0.9% (inactive) | inhibition (Histamine receptor H4): -16% (inactive) | inhibition (Serotonin receptor 5ht3): 7.8% (inactive) | inhibition (Serotonin receptor 5ht1e): -36.5% (inactive) | inhibition [11]: 78.9% | inhibition [12]: 2.6% (inactive) | inhibition [13]: 8.8% (inactive) | inhibition (Histamine receptor H3): 4% (inactive) | inhibition (Sigma receptor 1): 6.3% (inactive) | inhibition [14]: -14.2% (inactive) | inhibition [15]: -6.7% (inactive) | inhibition [16]: -2.9% (inactive) | inhibition [17]: 97.3% | inhibition [18]: 38.7% (inactive)
SMILES: CC(=O)c1ccc2c(c1)Nc1ccccc1S2
